Measurements as given in patent publication US5773424A, “Treatment of toxoplasmosis” (priority 1994, dated 1998).

Tests used:
[1] = tested on: extracts of Toxoplasma gondii; assay: Inhibition of phosphorylation of NBMPR (formation of NBMPR-P); type: biochemical
Experimental: (§1) Enzyme assay. […] Incubation was carried out at 37° C.

[2] = tested on: extracts of human liver; assay: Inhibition of phosphorylation of NBMPR; type: biochemical
Experimental: as §1

[3] = tested on: extracts of Toxoplasma gondii; assay: Inhibition of phosphorylation of adenosine (or inosine) to nucleoside 5'-monophosphate; type: biochemical; details: T. gondii extract
Experimental: as §1

[4] = tested on: extracts from human liver; assay: Inhibition of phosphorylation of adenosine; type: biochemical; details: human liver extract
Experimental: as §1

[5] = tested on: extracts from mouse liver; assay: Inhibition of phosphorylation of adenosine; type: biochemical; details: mouse liver extract
Experimental: as §1

[6] = molecular target: T. gondii adenosine kinase (Toxoplasma gondii, UniProt Q9TVW2); assay: biochemical; details: AppKi for inhibition of T. gondii adenosine kinase, 5 μM adenosine; ± range, at least two estimations
[7] = substrate: Nc1ncnc2c1ncn2[C@@H]1O[C@H](CO)[C@@H](O)[C@H]1O; assay: cells, lysate or membranes named; details: other: adenosine as substrate; pH 8.0
Experimental: Preparation of cytosol extracts. For the structure activity relationships studies, approximately 5×10^8 T. gondii were suspended in 1.2 ml of 50 mM N-2-hydroxyethylpiperazine-N'-2-ethanesulfonic acid (HEPES)-Cl (pH 8.0)/1 mM dithiothreitol and homogenized for 30 seconds at setting 10, using a Brinnmann Instruments Polytron homogenizer fitted with a PTA 7K1 probe. The homogenate was then centrifuged at approximately 116,000 g for 1 hour at 5° and the supernatant (cytosol extract) collected and used as the enzyme source. Fresh cytosol extracts were prepared for each experiment.
Adenosine kinase assay. T. gondii adenosine kinase activity was measured by following the formation of [^14 C]AMP from [^14 C]adenosine and ATP. […]
Reactions were started by the addition of [8-^14 C]adenosine, incubated at 37° for 10 minutes and terminated by placing the reaction tubes in a boiling water bath for 2 minutes. […] The substrate and product spots (which accounted for all of the radioactivity on the plates) were identified by UV quenching, cut out, and the radioactivity quantitated by liquid scintillation counting in 20 ml of Scintilene, using a Packard 460 scintillation counter. […] Enzyme velocity was calculated by multiplying the fraction of AMP formed from adenosine times the amount of adenosine in the assay, and dividing by the incubation time. […]

Nc1nc2c(nc(N)n2[C@@H]2O[C@H](CO)[C@@H](O)[C@H]2O)c(=O)[nH]1 [8-Aminoguanosine, reference compound]
% Inhibition of phosphorylation of NBMPR, T. gondii ([1]; 25 μM): 0%
% Inhibition of phosphorylation of NBMPR, T. gondii ([1]; 50 μM): 0%
% Inhibition of phosphorylation of NBMPR, T. gondii ([1]; 100 μM): 0%
% Inhibition of phosphorylation of NBMPR, Human Liver ([2]; 25 μM): 0%
% Inhibition of phosphorylation of NBMPR, Human Liver ([2]; 50 μM): 0%
% Inhibition of phosphorylation of NBMPR, Human Liver ([2]; 100 μM): 0%
Effect on the phosphorylation of adenosine, in words [3]: no effect
Effect on the phosphorylation of adenosine, in words [4]: no effect
Effect on the phosphorylation of adenosine, in words [5]: no effect

Nc1ncnc2c([C@@H]3O[C@H](CO)[C@@H](O)[C@H]3O)n[nH]c12 [Compound 81, 8-Aza-9-deazaadenosine (formycin A)]
Ki [6]: 1400 µM
% Inhibition of phosphorylation of NBMPR, T. gondii ([1]; 100 μM): 0%
% Inhibition of phosphorylation of NBMPR, T. gondii ([1]; 250 μM): 0%
% Inhibition of phosphorylation of NBMPR, T. gondii ([1]; 500 μM): 0%
% Inhibition of phosphorylation of NBMPR, Human Liver ([2]; 100 μM): 0%
% Inhibition of phosphorylation of NBMPR, Human Liver ([2]; 250 μM): 0%
% Inhibition of phosphorylation of NBMPR, Human Liver ([2]; 500 μM): 0%
Effect on the phosphorylation of adenosine, in words [3]: no effect
Effect on the phosphorylation of adenosine, in words [4]: no effect
Effect on the phosphorylation of adenosine, in words [5]: no effect

B1: T. gondii adenosine kinase (Toxoplasma gondii) (protein)
chain: MAVDSSNSATGPMRVFAIGNPILDLVAEVPSSFLDEFFLKRGDATLATPEQMRIYSTLDQFNPTSLPGGSALNSVRVVQKLLRKPGSAGYMGAIGDDPRGQVLKELCDKEGLATRFMVAPGQSTGVCAVLINEKERTLCTHLGACGSFRLPEDWTTFASGALIFYATAYTLTATPKNALEVAGYAHGIPNAIFTLNLSAPFCVELYKDAMQSLLLHTNILFGNEEEFAHLAKVHNLVAAEKTALSTANKEHAVEVCTGALRLLTAGQNTGATKLVVMTRGHNPVIAAEQTADGTVVVHEVGVPVVAAEKIVDTNGAGDAFVGGFLYALSQGKTVKQCIMCGNACAQDVIQHVGFSLSFTSLPC
Km [7]: 5 µM
